Experiments:
Type in all cases: cell-based, Escherichia coli
[1] = tested on: oxidoreductase gene mRNA in LY180; test: Comparison of mRNA levels before and after furfural addition (expression array); conditions: 1.5 g/L furfural addition in LY180
Procedure: Analysis of mRNA as a measure of gene expression was performed as previously described (Miller et al., 2009a). Cultures were grown using 4 separate 500-ml fermentation vessels per strain. Initial samples (control) were removed for RNA extraction when the culture density reached approximately 0.66 g dry cell weight (dcw) liter^−1 (1.5 OD 550 nm). Furfural (15 mM) was then added and incubation continued. After 15 min incubation with furfural, cells were harvested for RNA extraction. RNA was submitted to NimbleGen for analysis of global expression. Expression data was further analyzed using ArrayStar and Excel.
UcpA was discovered accidentally as a beneficial gene for furfural tolerance during a search for E. coli NADH-utilizing oxidoreductase genes that could reduce furfural and confer resistance. […] We began by comparing expression levels of all E. coli genes in the absence of furfural and in the presence of 15 mM furfural (Table 1). […] These were further sorted to identify 5 candidate oxidoreductases that are known or putative users of NADH and have a 3-fold or higher expression level in the presence of 15 mM furfural. One of the genes was fucO, a gene previously discovered to reduce furfural using NADH and to increase furfural tolerance in E. coli. Four new candidates were identified. Two were operons encoding subunits (xdhABC and YeiTA) and two were monocistronic (ucpA and aldA). These 4 candidates are shown in bold type in Table 2.

[2] = tested on: E. coli W/pLOI4856; test: pH-controlled batch fermentation (10% xylose); conditions: 10 mM furfural
[3] = tested on: XW118 (LY180 ucpA::kan); test: pH-controlled batch fermentation (10% xylose)
Procedure: (§1) The effects of UcpA on growth, ethanol production, and furfural metabolism were investigated in more detail during pH-controlled batch fermentation in mineral salt medium (AM1 medium containing 100 g xylose liter^−1, 0.1 mM IPTG and 12.5 μg ml^−1 ampicillin for all cultures harboring plasmids; furfural as indicated; inoculum of 22 mg dcw liter^−1) as previously described (Wang et al., 2011b). Ethanol (retention time 1.1 min) and furfuryl alcohol (retention time 6.2 min) were measured using an Agilent 6890N gas chromatograph (Santa Clara, Calif.) (Miller et al., 2009b). Furoic acid (retention time of 51.2 min) and sugars were measured by high-performance liquid chromatography (Geddes et al., 2010a). Furfural was measured using a Beckman-Coulter DU 800 spectrophotometer (Martinez et al., 2000a).

[4] = tested on: XW137 (E. coli W ucpA::kan); test: pH-controlled batch fermentation (10% xylose)
[5] = tested on: E. coli W/pTrc99A; test: pH-controlled batch fermentation (10% xylose); conditions: 10 mM furfural
[6] = tested on: E. coli W; test: pH-controlled batch fermentation (10% xylose)
[7] = tested on: LY180/pTrc99A; test: pH-controlled batch fermentation (10% xylose)
Procedure: (§2) Seed pre-cultures of strains containing pTrc99A or pLOI4856 were grown from plates using sealed culture tubes containing AM1 medium (20 g liter^−1 xylose, 12.5 mg liter^−1 ampicillin). After incubation for 16 h, pre-inocula were diluted into 500-ml fermentation vessels containing 300 ml AM1 media (100 g liter^−1 xylose, 1 mM betaine, 0.1 mM IPTG, 12.5 μg ml^−1 ampicillin) to provide a starting density of 13.2 mg dcw. After 24 h growth, these seed cultures were used to provide a starting inoculum for batch fermentations (AM1 medium, 100 g liter^−1 xylose, 12.5 μg ml^−1 ampicillin, 0.1 mM IPTG, 13.2 mg dcw initial density, and furfural). Fermentations were maintained at pH 6.5 […] by the automatic addition of KOH as previously described (Miller et al., 2009b). Ethanol was measured using an Agilent 6890N gas chromatograph (Palo Alto, Calif.) equipped with a flame ionization detector and a 15-meter HP-Plot Q Megabore column. Furfural concentration was monitored using a Beckman DU spectrophotometer (Martinez et al., 2000b; Miller et al., 2009b). Organic acids and xylose were measured by high-performance liquid chromatography (Miller et al., 2009b).
as §1

[8] = tested on: LY180/pLOI4856; test: pH-controlled batch fermentation (10% xylose)
Procedure: as §2, §1

[9] = 15 mM furfural, batch fermentation of xylose to ethanol

For `O=Cc1ccco1` [furfural], which “Fold increase of mRNA, yagQ” value ([1]; b0283-b0286 yagQRST, 1st value) is on record?
The value was 2.2 fold.

What about the “Fold increase of mRNA, yagR” value ([1]; b0283-b0286 yagQRST, 2nd value) of the same compound?
The value was 2.3 fold.

And the “Fold increase of mRNA, yagS” value ([1]; b0283-b0286 yagQRST, 3rd value)?
The value was 4.7 fold.

And the “Fold increase of mRNA, yagT” value ([1]; b0283-b0286 yagQRST, 4th value)?
The value was 3.5 fold.

And the “Fold increase of mRNA, ykgE” value ([1]; b0306)?
The value was 2.0 fold.

And the “Fold increase of mRNA, frmB” value ([1]; b0355-b0356 frmBA, 1st value)?
The value was 4.4 fold.

And the “Fold increase of mRNA, frmA” value ([1]; b0355-b0356 frmBA, 2nd value)?
The value was 5.7 fold.

What about the “Fold increase of mRNA, yajO” value ([1]; b0419) of the same compound?
The value was 2.6 fold.

And the “Fold increase of mRNA, ybdH” value ([1]; b0599)?
The value was 3.0 fold.

And the “Fold increase of mRNA, sdhA” value ([1]; b0723-b0724 sdhAB, 1st value)?
Its value is 5.3 fold.

What about the “Fold increase of mRNA, sdhB” value ([1]; b0723-b0724 sdhAB, 2nd value) of the same compound?
The value was 5.8 fold.

What about the “Fold increase of mRNA, ybiC” value ([1]; b0801) of the same compound?
Its value is 2.2 fold.

And the “Fold increase of mRNA, wrbA” value ([1]; b1004)?
The value was 3.0 fold.

And the “Fold increase of mRNA, yciW” value ([1]; b1287)?
The value was 2.4 fold.

What about the “Fold increase of mRNA, ydbC” value ([1]; b1406) of the same compound?
The value was 2.9 fold.

What about the “Fold increase of mRNA, aldA” value ([1]; b1415) of the same compound?
Its value is 4.2 fold.

What about the “Fold increase of mRNA, ydcW” value ([1]; b1444) of the same compound?
The value was 2.5 fold.

And the “Fold increase of mRNA, yncB” value ([1]; b1449)?
Its value is 2.6 fold.

And the “Fold increase of mRNA, nemA” value ([1]; b1650)?
The value was 6.4 fold.

What about the “Fold increase of mRNA, yobF” value ([1]; b2137) of the same compound?
The value was 8.5 fold.

What about the “Fold increase of mRNA, yeiT” value ([1]; b2146-b2147 yeiTA, 1st value) of the same compound?
Its value is 3.1 fold.

And the “Fold increase of mRNA, yeiA” value ([1]; b2146-b2147 yeiTA, 2nd value)?
The value was 3.0 fold.

What about the “Fold increase of mRNA, yeiQ” value ([1]; b2172) of the same compound?
Its value is 2.3 fold.

And the “Fold increase of mRNA, ucpA” value ([1]; b2426)?
Its value is 4.5 fold.

What about the “Fold increase of mRNA, yphC” value ([1]; b2545) of the same compound?
Its value is 2.3 fold.

What about the “Fold increase of mRNA, fucO” value ([1]; b2799) of the same compound?
Its value is 4.4 fold.

What about the “Fold increase of mRNA, xdhABC” value ([1]; b2868) of the same compound?
The value was 5.8 fold.

What about the “Fold increase of mRNA, ygfS” value ([1]; b2886) of the same compound?
The value was 2.1 fold.

What about the “Fold increase of mRNA, yqfA” value ([1]; b2899) of the same compound?
The value was 2.2 fold.

And the “Fold increase of mRNA, yghZ” value ([1]; b3001)?
The value was 2.0 fold.

What about the “Fold increase of mRNA, yqhD” value ([1]; b3011) of the same compound?
The value was 4.6 fold.

And the “Fold increase of mRNA, dkgA” value ([1]; b3012)?
The value was 5.4 fold.

What about the “Fold increase of mRNA, yiaK” value ([1]; b3572) of the same compound?
The value was 2.4 fold.

And the “Fold increase of mRNA, aldB” value ([1]; b3588)?
The value was 5.7 fold.

What about the “Cell Yield” value [2] of the same compound?
The value was 2.5 ± 0.3 g/L.

What about the “Furfural-dependent slow growth Duration” value [2] of the same compound?
The value was 16 ± 2 h.

What about the “Furfural-dependent slow growth μ” value [2] of the same compound?
Its value is 0.07 ± 0.01 h⁻¹.

And the “μ Max” value [2]?
Its value is 0.18 ± 0.02 h⁻¹.

What about the “Cell Yield” value ([3]; 8 mM furfural) of the same compound?
Its value is 4.0 ± 0.1 g/L.

And the “Furfural-dependent slow growth Duration” value ([3]; 8 mM furfural)?
Its value is 55 ± 2 h.

And the “Furfural-dependent slow growth μ” value ([3]; 8 mM furfural)?
The value was 0.01 ± 0.01 h⁻¹.

And the “μ Max” value ([3]; 8 mM furfural)?
Its value is 0.14 ± 0.01 h⁻¹.

And the “Cell Yield” value ([3]; 10 mM furfural)?
Its value is 0.04 ± 0.01 g/L.

And the “Furfural-dependent slow growth Duration” value ([3]; 10 mM furfural)?
The value was >72 h.

What about the “Furfural-dependent slow growth μ” value ([3]; 10 mM furfural) of the same compound?
The value was <0.04 h⁻¹.

And the “μ Max” value ([3]; 10 mM furfural)?
The value was <0.04 h⁻¹.

And the “Cell Yield” value ([4]; 8 mM furfural)?
Its value is 1.9 ± 0.1 g/L.

What about the “Furfural-dependent slow growth Duration” value ([4]; 8 mM furfural) of the same compound?
Its value is 16 ± 3 h.

And the “Furfural-dependent slow growth μ” value ([4]; 8 mM furfural)?
The value was 0.11 ± 0.02 h⁻¹.

And the “Cell Yield” value ([4]; 10 mM furfural)?
Its value is 1.9 ± 0.1 g/L.

And the “Furfural-dependent slow growth Duration” value ([4]; 10 mM furfural)?
The value was 37 ± 2 h.

What about the “Furfural-dependent slow growth μ” value ([4]; 10 mM furfural) of the same compound?
The value was 0.02 ± 0.01 h⁻¹.

And the “μ Max” value ([4]; 10 mM furfural)?
Its value is 0.12 ± 0.02 h⁻¹.

And the “Cell Yield” value [5]?
The value was 2.0 ± 0.3 g/L.

And the “Furfural-dependent slow growth Duration” value [5]?
The value was 26 ± 4 h.

What about the “Furfural-dependent slow growth μ” value [5] of the same compound?
Its value is 0.03 ± 0.01 h⁻¹.

And the “μ Max” value [5]?
The value was 0.13 ± 0.01 h⁻¹.

And the “Cell Yield” value ([6]; 8 mM furfural)?
The value was 1.9 ± 0.1 g/L.

And the “Furfural-dependent slow growth Duration” value ([6]; 8 mM furfural)?
Its value is 13 ± 1 h.

What about the “Furfural-dependent slow growth μ” value ([6]; 8 mM furfural) of the same compound?
Its value is 0.18 ± 0.01 h⁻¹.

And the “μ Max” value ([6]; 8 mM furfural)?
Its value is 0.19 ± 0.01 h⁻¹.

And the “Cell Yield” value ([6]; 10 mM furfural)?
Its value is 2.0 ± 0.1 g/L.

What about the “Furfural-dependent slow growth Duration” value ([6]; 10 mM furfural) of the same compound?
The value was 21 ± 1 h.

What about the “Furfural-dependent slow growth μ” value ([6]; 10 mM furfural) of the same compound?
Its value is 0.06 ± 0.02 h⁻¹.

What about the “μ Max” value ([6]; 10 mM furfural) of the same compound?
The value was 0.20 ± 0.02 h⁻¹.

And the “Cell Yield” value ([7]; 10 mM furfural)?
Its value is 0.06 ± 0.01 g/L.

What about the “Furfural-dependent slow growth Duration” value ([7]; 10 mM furfural) of the same compound?
The value was >72 h.

What about the “Furfural-dependent slow growth μ” value ([7]; 10 mM furfural) of the same compound?
The value was <0.04 h⁻¹.

What about the “μ Max” value ([7]; 10 mM furfural) of the same compound?
The value was <0.04 h⁻¹.

And the “Growth in the presence of furfural” value [7, 9]?
The value was “unable to grow”.

What about the “Cell Yield” value ([8]; 10 mM furfural) of the same compound?
Its value is 3.6 ± 0.1 g/L.

What about the “Furfural-dependent slow growth Duration” value ([8]; 10 mM furfural) of the same compound?
Its value is 22 ± 2 h.

What about the “Furfural-dependent slow growth μ” value ([8]; 10 mM furfural) of the same compound?
Its value is 0.09 ± 0.01 h⁻¹.

What about the “μ Max” value ([8]; 10 mM furfural) of the same compound?
Its value is 0.14 ± 0.01 h⁻¹.

What about the Final ethanol yield ([8]; 15 mM furfural, 100 g liter^−1 xylose) of the same compound?
The Final ethanol yield was “approximately 90 % of the theoretical maximum”.

What about the “Growth lag in the presence of furfural” value [8, 9] of the same compound?
Its value is 24 h.

Source: patent publication US9347077B2, “Over-expression of a putative oxidoreductase (UcpA) for increasing furfural or 5-hydroxymethylfurfural tolerance” (UNIVERSITY OF FLORIDA RESEARCH FOUNDATION, INCORPORATED, priority 2011, dated 2016)
